Test results: patent publication US10092589B2, “Anti-tumor agent containing anti-tumor platinum complex, and anti-tumor effect enhancer” (Taiho Pharmaceutical Company Limited, priority 2014, dated 2018)
Marks after values point to notes of the source that are not given here.

Experiments:
[1] = system: human colon cancer cell strain (KM20C); assay: KM20C xenograft, FTD·TPI combination drug and oxaliplatin (Example 3-1); type: in vivo; details: Day 15, tail vein Day 1 and Day 8
Description: (§1) As an index of the anti-tumor effect, the TVs on Days 5, 8, 11, 15, 19, 22, 26, and 29 were calculated in each group. In accordance with the following equation, the relative tumor volume (RTV) to that on Day 0 was calculated and compared with the RTV of the untreated group (control).
IR(%)=[1−(mean RTV value of treated group)/(mean RTV value of control group)]×100
In a similar manner to that in Example 1, to BALB/cA Jcl-nu mice to which a human colon cancer cell strain (KM20C) had been transplanted, the FTD⋅TPI combination drug or oxaliplatin alone, or a combination of the two was administered, and enhancement of the anti-tumor effect was examined.
(§2) The FTD⋅TPI combination drug (a mixture of FTD and TPI at a molar ratio of 1:0.5) was prepared for administration at doses of 75 and 150 mg/kg/day in terms of FTD. Oxaliplatin (Eloxatin, Sanofi-Aventis) was prepared for administration at doses of 6 and 12 mg/kg/day. The FTD⋅TPI combination drug was orally administered on Days 1 to 14 consecutively, and oxaliplatin was administered through the tail vein on Day 1 and Day 8. In the combination administration groups, the doses and administration schedules of the FTD⋅TPI combination drug and oxaliplatin were the same as those of the corresponding monotherapy groups. The TV and body weight of each group were measured on Days 4, 7, 10, and 15, and the anti-tumor effect and side effects were evaluated.

[2] = Oxaliplatin tolerability in mice with no cancer (Reference Example 4); type: in vivo, BALB/cA Jcl-nu mice; details: tail vein, Day 1 and Day 8
Description: To BALB/cA Jcl-nu mice with no cancer (4 mice in each group), oxaliplatin (l-OHP) was administered at 10, 12, 15, or 22.5 mg/kg/day through the tail vein on Day 1 and Day 8. In the groups treated with the doses of 15 mg/kg/day or more, strong body weight reductions of 20% or more were observed. The recommended dose of oxaliplatin for mice was thus 12 mg/kg/day.

[3] = system: human colon cancer cell strain (SW48); assay: SW48 xenograft, FTD·TPI combination drug and oxaliplatin (Example 3-2); type: in vivo; details: tail vein Day 1 and Day 8; for IR (tumor growth inhibition rate) / RTV (mean ± SD): Day 29
Description: In a similar manner to that in Example 1, to BALB/cA Jcl-nu mice to which a human colon cancer cell strain (SW48) had been transplanted, the FTD⋅TPI combination drug or oxaliplatin alone, or a combination of the two was administered, and enhancement of the anti-tumor effect was examined.
(§3) The FTD⋅TPI combination drug (a mixture of FTD and TPI at a molar ratio of 1:0.5) was prepared for administration at a dose of 150 mg/kg/day in terms of FTD. Oxaliplatin (Eloxatin, Sanofi-Aventis) was prepared for administration at doses of 7 and 12 mg/kg/day. The FTD⋅TPI combination drug was orally administered on Days 1 to 14 consecutively, and oxaliplatin was administered through the tail vein on Day 1 and Day 8. In the combination administration groups, the doses and administration schedules of the FTD⋅TPI combination drug and oxaliplatin were the same as those of the corresponding monotherapy groups. The TV and body weight of each group were measured on Days 3, 7, 11, 15, 18, 22, 25, and 29, and the anti-tumor effect and side effects were evaluated.
The number of days that elapsed until the tumor volume reached 5 times that on Day 0 (RTV5) was determined, and the growth delay effect was evaluated (Cancer Chemother Pharmacol 57: 709-718, 2006; Int J Radiat Oncol Biol Phys 86 (3): 469-76, 2013).

[4] = system: human gastric cancer cell line (MKN74); assay: MKN74 xenograft, FTD·TPI combination drug and oxaliplatin (Example 3-3); type: in vivo; details: tail vein Day 1 and Day 8; for IR (tumor growth inhibition rate) / RTV (mean ± SD): Day 29
Description: (§4) In a similar manner to that in Example 1, to BALB/cA Jcl-nu mice to which a human gastric cancer cell line (MKN74) was transplanted, the FTD⋅TPI combination drug or oxaliplatin alone, or a combination of the two was administered, and enhancement of the anti-tumor effect was examined.
as §3
(§5) The number of days that elapsed until the tumor volume reached 5 times that on Day 0 (RTV5) was determined, and the growth delay effect was evaluated.

[5] = system: human gastric cancer cell line (MKN74/5-FU), 5-FU resistant; assay: MKN74/5-FU xenograft, FTD·TPI combination drug and oxaliplatin (Example 3-4); type: in vivo; details: tail vein Day 1 and Day 8; for IR (tumor growth inhibition rate) / RTV (mean ± SD): Day 29
Description: as §4, with “(MKN74/5-FU) that is a 5-FU resistant cell line had been” for “(MKN74) was”
as §3, §5

[6] = Cisplatin tolerability (body weight) in KM20C-transplanted mice (Reference Example 2); type: in vivo, BALB/cA Jcl-nu mice
Description: To BALB/cA Jcl-nu mice (8 mice in each group) to which a human colon cancer cell line KM20C had been transplanted, cisplatin was administered through the tail vein on Day 1 and Day 8. At a dose of 7 mg/kg/day, body weight reduction was 20% or less, and this dose was feasible. Accordingly, the recommended dose of cisplatin (CDDP) for mice was 7 mg/kg/day.

[7] = system: human lung cancer cell line (Lu-134); assay: Lu-134 xenograft, FTD·TPI combination drug and cisplatin (Example 1); type: in vivo; details: Day 29, tail vein Day 1 and Day 8
Description: A human lung cancer cell line (Lu-134) was transplanted to the right chest of 5 to 6-week-old BALB/cA Jcl-nu mice. After the tumor transplantation, the long diameter (mm) and the short diameter (mm) of the tumor were measured, and the tumor volume (TV) was calculated.
as §2, with “Cisplatin (Randa inj., Nippon Kayaku Co., Ltd)” for “Oxaliplatin (Eloxatin, Sanofi-Aventis)”, “3.5” for “6”, “7” for “12”, “cisplatin” for “oxaliplatin”, “groups.” for “groups. The TV and body weight of each group were measured on Days 4, 7, 10, and 15, and the anti-tumor effect and side effects were evaluated.”
as §1
TV(mm^3)=(long diameter×short diameter^2)/2 RTV=(TV on Day 29)/(TV on Day 0)
(§6) The tumor growth inhibition rate (IR) on Day 29 on the basis of RTV values was calculated in accordance with the following equation. IR(%)=[1−(mean RTV value of treated group)/(mean RTV value of control group)]×100
To evaluate body weight reduction as an index of side effects, body weights were measured in each group on each measurement day.

[8] = Carboplatin tolerability in mice with no cancer (Reference Example 3); type: in vivo, BALB/cA Jcl-nu mice; details: tail vein, Day 1
Description: To BALB/cA Jcl-nu mice with no cancer (5 mice in each group), carboplatin (CBDCA) was administered at 50, 70, 100, 140, or 200 mg/kg/day through the tail vein on Day 1. In the groups treated with the doses of 140 mg/kg/day or more, strong body weight reductions of 20% or more and death cases were observed. The recommended dose of carboplatin for mice was thus 100 mg/kg/day.

[9] = system: human lung cancer cell line (Lu-134); assay: Lu-134 xenograft, FTD·TPI combination drug and carboplatin (Example 2); type: in vivo; details: Day 29, tail vein Day 1 and Day 8
Description: as §1, §6
In a similar manner to that in Example 1, to BALB/cA Jcl-nu mice to which a human lung cancer cell line (Lu-134) had been transplanted, the FTD⋅TPI combination drug or carboplatin alone, or a combination of the two was administered, and enhancement of the anti-tumor effect was examined.
as §2, with “Carboplatin (Paraplatin inj., Bristol-Myers)” for “Oxaliplatin (Eloxatin, Sanofi-Aventis)”, “50” for “6”, “100” for “12”, “carboplatin” for “oxaliplatin”, “8, 11, 15, 19, 22, 26,” for “7, 10,”, “29,” for “15,”

## O=C1[O][Pt]2([NH][C@@H]3CCCC[C@H]3[NH]2)[O]C1=O [Oxaliplatin (l-OHP), [(1R,2R)-cyclohexane-1,2-diamine](ethanedioato-O,O′)platinum(II)]
[1]; 6 mg/kg/day
  IR (tumor growth inhibition rate): 36.4%
  RTV (mean ± SD): 6.99 ± 0.32
[1]; 12 mg/kg/day
  IR (tumor growth inhibition rate): 55.0%
  RTV (mean ± SD): 4.94 ± 0.53
[2]; doses of 15 mg/kg/day or more
  body weight reductions: ≥ 20%
[2]
  recommended dose for mice: 12 mg/kg/day
[3]; 7 mg/kg/day
  RTV5 (the period, RTV reaches 5): 8.9 ± 0.4 days
  IR (tumor growth inhibition rate): 22.1%
  RTV (mean ± SD): 47.63 ± 4.33
[3]; 12 mg/kg/day
  RTV5 (the period, RTV reaches 5): 10.0 ± 0.8^$ days
  IR (tumor growth inhibition rate): 36.7%
  RTV (mean ± SD): 38.72 ± 3.69*^,#
[4]; 7 mg/kg/day
  RTV5 (the period, RTV reaches 5): 15.8 ± 0.6^$ days
  IR (tumor growth inhibition rate): 20.7%
  RTV (mean ± SD): 12.67 ± 0.74
[4]; 12 mg/kg/day
  RTV5 (the period, RTV reaches 5): 18.5 ± 0.8^$ days
  IR (tumor growth inhibition rate): 35.8%
  RTV (mean ± SD): 10.25 ± 0.87
[5]; 7 mg/kg/day
  RTV5 (the period, RTV reaches 5): 18.6 ± 1.4^$ days
  IR (tumor growth inhibition rate): 33.7%
  RTV (mean ± SD): 11.23 ± 1.60
[5]; 12 mg/kg/day
  RTV5 (the period, RTV reaches 5): 20.1 ± 1.3^$ days
  IR (tumor growth inhibition rate): 40.5%
  RTV (mean ± SD): 10.08 ± 1.77

## N.N.[Cl][Pt][Cl] [Cisplatin (CDDP), (SP-4-2)-diamminedichloroplatinum]
[6]; 7 mg/kg/day, tail vein Day 1 and Day 8
  body weight reduction: ≤ 20%
[6]; tail vein, Day 1 and Day 8
  recommended dose for mice: 7 mg/kg/day
[7]; 3.5 mg/kg/day
  IR (tumor growth inhibition rate): 21.0%
  RTV (mean ± SD): 29.12 ± 2.79
[7]; 7.0 mg/kg/day
  IR (tumor growth inhibition rate): 49.6%
  RTV (mean ± SD): 18.56 ± 4.64

## N.N.O=C([O-])C1(C(=O)[O-])CCC1.[Pt+2] [Carboplatin (CBDCA), cis-diammine (1,1-cyclobutanedicarboxylato)-platinum (II)]
[8]; doses of 140 mg/kg/day or more
  body weight reductions: ≥ 20%
  death: death cases
[8]
  recommended dose for mice: 100 mg/kg/day
[9]; 50 mg/kg/day
  IR (tumor growth inhibition rate): 25.3%
  RTV (mean ± SD): 26.86 ± 2.44
[9]; 100 mg/kg/day
  IR (tumor growth inhibition rate): 57.2%
  RTV (mean ± SD): 15.40 ± 4.38
